Consider eight compounds from PubChem BioAssay (NCI).

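These data come from cells grown in 96-well plates and exposed to compound for 48 hours at five concentrations. GI50 = concentration required for 50% inhibition of growth. TGI is the concentration that stops growth completely.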 A value given as a limit tells only on which side of the number the result lay.

Test systems include HCT-15 colon; MDA-MB-231 breast; HOP-92 NSCLC; KM12 colon; PC-3 prostate; SK-OV-3 ovarian; MCF7 breast; UACC-257 melanoma; K-562 leukemia; HCT-116 colon.
Experiment in all cases: NCI tumour cell line growth inhibition, 48 h

Consider `Nc1cc(C(F)F)c(-c2nc(N3[C@@H]4CC[C@H]3COC4)nc(N3[C@@H]4CC[C@H]3COC4)n2)cn1`, for which the GI50 in the experiment with HCT-15 colon is 0.345 µM; in the experiment on MDA-MB-231 breast, 0.406 µM; in the experiment on HOP-92 NSCLC it was 0.0688 µM; in the experiment with KM12 colon, 0.569 µM; in the experiment with PC-3 prostate, 0.239 µM; with SK-OV-3 ovarian it was 0.145 µM. Moreover, the GI50 was 0.189 µM in the experiment on MCF7 breast, 0.295 µM in the experiment on UACC-257 melanoma, 0.673 µM in the experiment with K-562 leukemia and 0.769 µM in the experiment with HCT-116 colon. Moreover, the TGI in the experiment on HCT-15 colon was above 100 µM; with MDA-MB-231 breast, above 93.3 µM; in the experiment on HOP-92 NSCLC, 0.722 µM; in the experiment with KM12 colon, above 100 µM; with PC-3 prostate, above 100 µM; with SK-OV-3 ovarian it was 0.769 µM. Also, the TGI in the experiment with MCF7 breast was above 100 µM; in the experiment with UACC-257 melanoma, 4.31 µM; with K-562 leukemia it was above 100 µM; in the experiment with HCT-116 colon it was above 100 µM.

For `O=C(c1cccs1)c1c(C(F)(F)F)n([O-])c2cc(F)c(F)cc2[n+]1=O`, the GI50 is 0.851 µM in the experiment with HCT-15 colon; 1 µM with MDA-MB-231 breast; 1.46 µM in the experiment on HOP-92 NSCLC; 4.95 µM with KM12 colon; 2.62 µM in the experiment with PC-3 prostate; 2.69 µM in the experiment with SK-OV-3 ovarian. Also, the GI50 was 1.31 µM in the experiment with MCF7 breast, 3.11 µM with UACC-257 melanoma, 0.71 µM in the experiment with K-562 leukemia and 1.82 µM with HCT-116 colon. Also, the TGI in the experiment on HCT-15 colon was 2.25 µM; with MDA-MB-231 breast, 3.32 µM; in the experiment on HOP-92 NSCLC, 4.24 µM; with KM12 colon, 8.73 µM; in the experiment on PC-3 prostate, 4.82 µM; in the experiment with SK-OV-3 ovarian it was 5.85 µM. The TGI in the experiment on MCF7 breast was determined as 15.4 µM; in the experiment with UACC-257 melanoma, 6.79 µM; with K-562 leukemia it was 2.44 µM; in the experiment with HCT-116 colon it was 8.01 µM.

With `O=C1OC(c2ccc([N+](=O)[O-])cc2)=N/C1=C\c1ccc(O)cc1`, the TGI in the experiment on HCT-15 colon, with MDA-MB-231 breast, in the experiment with HOP-92 NSCLC, in the experiment on KM12 colon, in the experiment on PC-3 prostate and in the experiment with SK-OV-3 ovarian was above 100 µM throughout. The TGI in the experiment with MCF7 breast, in the experiment on UACC-257 melanoma, in the experiment on K-562 leukemia and in the experiment on HCT-116 colon was above 100 µM in each case.

Turning to `O=C(N/N=C/c1cc2ccccc2c2ccccc12)c1cc(O)c(O)c(O)c1`, the GI50 in the experiment on HCT-15 colon was 3.22 µM; with MDA-MB-231 breast, 2.7 µM; in the experiment on HOP-92 NSCLC, 2.1 µM; with KM12 colon it was 8.24 µM; in the experiment with PC-3 prostate, 3.28 µM; in the experiment on SK-OV-3 ovarian, 4.31 µM. In addition, the GI50 with MCF7 breast was 3.68 µM; with UACC-257 melanoma, 10.2 µM; in the experiment with K-562 leukemia, 3.57 µM; in the experiment with HCT-116 colon, 3.17 µM. Further, the TGI with HCT-15 colon stood at 25.4 µM; in the experiment with MDA-MB-231 breast it was 10.1 µM; with HOP-92 NSCLC, 7.19 µM; with KM12 colon, 22.9 µM; in the experiment on PC-3 prostate, 15.6 µM; in the experiment with SK-OV-3 ovarian it was 15.6 µM. Also, the TGI in the experiment on MCF7 breast is 19.7 µM; in the experiment on UACC-257 melanoma it was 24.6 µM; in the experiment on K-562 leukemia it was 51 µM; with HCT-116 colon, 12.4 µM.

As to `O=C(Nc1ccc(-n2cc(-c3ccncc3)c(-c3ccc(Cl)c(O)c3)n2)cc1)c1cc(Cl)cc(Cl)c1`, the GI50 in the experiment with HCT-15 colon was 1.31 µM; with MDA-MB-231 breast, 0.802 µM; with HOP-92 NSCLC, 5.57 µM; in the experiment with KM12 colon, 2.72 µM; with PC-3 prostate, 3.87 µM; with SK-OV-3 ovarian, above 21.2 µM. The GI50 was 6.21 µM with MCF7 breast, 5.68 µM in the experiment on UACC-257 melanoma, 1.11 µM in the experiment on K-562 leukemia and 2.69 µM in the experiment with HCT-116 colon. The TGI in the experiment on HCT-15 colon is above 21.8 µM; in the experiment with MDA-MB-231 breast, 4.01 µM; in the experiment on HOP-92 NSCLC it was above 100 µM; in the experiment on KM12 colon it was above 29.4 µM; in the experiment with PC-3 prostate, above 100 µM; in the experiment on SK-OV-3 ovarian, above 100 µM. The TGI in the experiment on MCF7 breast, in the experiment on UACC-257 melanoma, in the experiment on K-562 leukemia and in the experiment on HCT-116 colon was above 100 µM each time.

With `O=C(O)[C@@H]1C[C@@H](O)CN1`, the TGI in the experiment on HCT-15 colon, in the experiment on MDA-MB-231 breast, with HOP-92 NSCLC, in the experiment with KM12 colon, in the experiment with PC-3 prostate and with SK-OV-3 ovarian was above 100 µM in each case. In addition, the TGI in the experiment with MCF7 breast, with UACC-257 melanoma, in the experiment with K-562 leukemia and in the experiment with HCT-116 colon was above 100 µM each time.

As for `C=CC1=C(C)C2=NC1=CC1=NC(=C(CC)/C1=C/O)C=C1C=C3C(=O)C(C(=O)OC)C(=C4NC(=C2)C(C)C4CCC(=O)OC/C=C(\C)CCCC(C)CCCC(C)CCCC(C)C)C3=N1` (stereo not given) (tested in a mixture with another compound), the TGI with HCT-15 colon, in the experiment on MDA-MB-231 breast, with HOP-92 NSCLC, in the experiment on KM12 colon, with PC-3 prostate and in the experiment with SK-OV-3 ovarian was above 100 µM in each case. For the same compound, the TGI in the experiment on MCF7 breast, in the experiment on UACC-257 melanoma, in the experiment on K-562 leukemia and in the experiment on HCT-116 colon was above 100 µM in each case.

Regarding `O=[N+]([O-])c1ccc2nc(N/N=C/c3ccc(O)cc3)sc2c1`, the GI50 in the experiment on HCT-15 colon is 3.87 µM; with MDA-MB-231 breast it was 6.06 µM; in the experiment on HOP-92 NSCLC, 2.17 µM; in the experiment with KM12 colon it was 2.72 µM; in the experiment on PC-3 prostate, 4.51 µM; in the experiment on SK-OV-3 ovarian, 5.37 µM. Besides, the GI50 in the experiment on MCF7 breast is 3.17 µM; in the experiment with UACC-257 melanoma, 9.09 µM; in the experiment with K-562 leukemia, 2.58 µM; in the experiment with HCT-116 colon, 2.89 µM. In addition, the TGI in the experiment with HCT-15 colon is above 100 µM; in the experiment with MDA-MB-231 breast it was above 100 µM; with HOP-92 NSCLC, 8.96 µM; in the experiment with KM12 colon it was 17.2 µM; in the experiment on PC-3 prostate it was 34.2 µM; in the experiment with SK-OV-3 ovarian, 48.9 µM. Also, the TGI in the experiment on MCF7 breast is 70.5 µM; in the experiment on UACC-257 melanoma, 45 µM; with K-562 leukemia, above 100 µM; in the experiment with HCT-116 colon, above 100 µM.
